Article PMC4303209, “A novel phosphatidylinositol 3-kinase (PI3K) inhibitor directs a potent FOXO-dependent, p53-independent cell cycle arrest phenotype characterized by the differential induction of a subset of FOXO-regulated genes” (Breast Cancer Research : BCR, 2014)

Tested on: MCF-7 breast cancer cells
Assay: Microarray gene expression analysis (Agilent whole human genome 4 x 44K; compound vs DMSO, LIMMA log2 fold change)
Assay type: cell-based
Settings: cell cycle genes

Oc1cccc(-c2nc(N3CCOCC3)c3oc4ncccc4c3n2)c1 [PI-103]
STAT5A log2FC (Gene 6776): 0.39 | STAT5B log2FC (Gene 6777): 0.11 | AURKA log2FC (Gene 6790): -0.02 | STK10 log2FC (Gene 6793): -0.32 | AURKC log2FC (Gene 6795): 0.0218 | SUV39H1 log2FC (Gene 6839): -0.50 | TACC1 log2FC (Gene 6867): 0.0342 | ADAM17 log2FC (Gene 6868): 0.53 | TAF1 log2FC (Gene 6872): 0.15 | TAL1 log2FC (Gene 6886): -0.57 | TBX3 log2FC (Gene 6926): -0.69 | TCF3 log2FC (Gene 6929): 0.0643 | DYNLT3 log2FC (Gene 6990): -0.24 | DYNLT1 log2FC (Gene 6993): -0.03 | TERF1 log2FC (Gene 7013): 0.38 | TERF2 log2FC (Gene 7014): -0.16 | TFAP4 log2FC (Gene 7023): 0.39 | NR2F2 log2FC (Gene 7026): 0.34 | TFDP1 log2FC (Gene 7027): -0.56 | TFDP2 log2FC (Gene 7029): 0.41 | TGFB1 log2FC (Gene 7040): -0.44 | THBS1 log2FC (Gene 7057): -0.91 | TNF log2FC (Gene 7124): -1.87 | TNFAIP3 log2FC (Gene 7128): -0.85 | TOP2A log2FC (Gene 7153): 0.91 | TOP2B log2FC (Gene 7155): 0.99 | TOP3A log2FC (Gene 7156): -0.05 | TP53 log2FC (Gene 7157): 0.0569 | TP53BP2 log2FC (Gene 7159): 0.35 | TPR log2FC (Gene 7175): 0.74 | TSC1 log2FC (Gene 7248): 0.42 | TSC2 log2FC (Gene 7249): -0.11 | TSG101 log2FC (Gene 7251): 0.39 | TTK log2FC (Gene 7272): 1.59 | TUBG1 log2FC (Gene 7283): -0.33 | UBA52 log2FC (Gene 7311): 0.31 | UBB log2FC (Gene 7314): 0.0362 | UBC log2FC (Gene 7316): 0.33 | UBE2B log2FC (Gene 7320): 0.65 | UBE2D1 log2FC (Gene 7321): 0.50 | UBE2E1 log2FC (Gene 7324): 0.0118 | UBE2I log2FC (Gene 7329): -0.30 | WEE1 log2FC (Gene 7465): 0.0429 | WNT5A log2FC (Gene 7474): 0.13 | WNT10B log2FC (Gene 7480): -0.49 | WNT9A log2FC (Gene 7483): 0.04 | XPC log2FC (Gene 7508): 0.59 | XRCC2 log2FC (Gene 7516): -0.60 | YWHAG log2FC (Gene 7532): -0.88 | ZNF16 log2FC (Gene 7564): 0.34 | ZBTB17 log2FC (Gene 7709): 0.30 | PTP4A1 log2FC (Gene 7803): -0.61 | EVI5 log2FC (Gene 7813): 0.44 | ALMS1 log2FC (Gene 7840): 0.65 | NR4A3 log2FC (Gene 8013): 0.34 | NUP214 log2FC (Gene 8021): -0.41 | FOSL1 log2FC (Gene 8061): -2.53 | CUL5 log2FC (Gene 8065): -0.23 | YEATS4 log2FC (Gene 8089): 1.06 | HMGA2 log2FC (Gene 8091): -1.51 | CHAF1B log2FC (Gene 8208): -0.0543 | CLTCL1 log2FC (Gene 8218): -0.03 | USP9X log2FC (Gene 8239): 0.62 | SMC1A log2FC (Gene 8243): 0.14 | CDC7 log2FC (Gene 8317): 0.32 | RAD54L log2FC (Gene 8438): -0.18 | CUL4B log2FC (Gene 8450): 0.75 | CUL4A log2FC (Gene 8451): 0.38 | CUL1 log2FC (Gene 8454): 0.21 | KLF11 log2FC (Gene 8462): 1.20 | OFD1 log2FC (Gene 8481): 0.89 | PKP4 log2FC (Gene 8502): 0.15 | GAS7 log2FC (Gene 8522): -0.00153 | DGKZ log2FC (Gene 8525): -0.37 | CAMK1 log2FC (Gene 8536): -0.0329 | CDC14B log2FC (Gene 8555): 0.10 | CDK10 log2FC (Gene 8558): 0.17 | MADD log2FC (Gene 8567): 0.75 | DYNLL1 log2FC (Gene 8655): -1.05 | TNKS log2FC (Gene 8658): 0.82 | BECN1 log2FC (Gene 8678): 0.35 | CDC23 log2FC (Gene 8697): 0.30 | CRADD log2FC (Gene 8738): -0.08 | CCNK log2FC (Gene 8812): -0.50 | BANF1 log2FC (Gene 8815): -0.32 | CDK5R1 log2FC (Gene 8851): -0.33 | IER3 log2FC (Gene 8870): -2.26 | SPHK1 log2FC (Gene 8877): -0.42 | CDC16 log2FC (Gene 8881): 0.66 | CCNA1 log2FC (Gene 8900): 0.11 | TIMELESS log2FC (Gene 8914): 0.20 | PHOX2B log2FC (Gene 8929): -0.0327 | MBD4 log2FC (Gene 8930): 0.29 | BTRC log2FC (Gene 8945): 0.17 | WASL log2FC (Gene 8976): 0.10 | RNF8 log2FC (Gene 9025): -0.06 | PRC1 log2FC (Gene 9055): 0.34 | USP2 log2FC (Gene 9099): -0.07 | USP8 log2FC (Gene 9101): 0.76 | SMC3 log2FC (Gene 9126): 1.35 | EXO1 log2FC (Gene 9156): -0.12 | ARHGEF2 log2FC (Gene 9181): -0.51 | ZW10 log2FC (Gene 9183): 0.27 | BUB3 log2FC (Gene 9184): 0.44 | NOLC1 log2FC (Gene 9221): -0.67 | CCPG1 log2FC (Gene 9236): 1.09 | MAPKAPK2 log2FC (Gene 9261): -0.19 | PIWIL1 log2FC (Gene 9271): 0.0443 | RECQL5 log2FC (Gene 9400): 0.48 | ROCK2 log2FC (Gene 9475): 0.20 | PSMF1 log2FC (Gene 9491): -0.34 | VPS4B log2FC (Gene 9525): 0.64 | CLOCK log2FC (Gene 9575): 0.03 | MAD2L1BP log2FC (Gene 9587): -0.27 | ARHGEF10 log2FC (Gene 9639): 0.19 | MDC1 log2FC (Gene 9656): -0.21 | CEP135 log2FC (Gene 9662): 0.43 | KIAA0430 log2FC (Gene 9665): 0.91 | CROCC log2FC (Gene 9696): -0.11 | ESPL1 log2FC (Gene 9700): 0.72 | CEP57 log2FC (Gene 9702): 1.20 | UTP14C log2FC (Gene 9724): 0.24 | KNTC1 log2FC (Gene 9735): 0.58 | RASSF2 log2FC (Gene 9770): 0.56 | CKAP5 log2FC (Gene 9793): 0.44 | SFI1 log2FC (Gene 9814): 0.17 | RB1CC1 log2FC (Gene 9821): 1.48 | MELK log2FC (Gene 9833): 0.25 | GINS1 log2FC (Gene 9837): -0.84 | MAGI2 log2FC (Gene 9863): 0.33 | TLK1 log2FC (Gene 9874): 0.44 | POM121 log2FC (Gene 9883): -0.58 | KLHL21 log2FC (Gene 9903): 0.49 | DCLRE1A log2FC (Gene 9937): 0.44 | USP3 log2FC (Gene 9960): 0.29 | THOC1 log2FC (Gene 9984): 0.38 | DMTF1 log2FC (Gene 9988): 0.44 | CASP8AP2 log2FC (Gene 9994): 0.61 | PDCD6IP log2FC (Gene 10015): 0.60 | BCL2L11 log2FC (Gene 10018): 0.09 | CHAF1A log2FC (Gene 10036): -0.38 | PARP3 log2FC (Gene 10039): 0.48 | TOM1L1 log2FC (Gene 10040): 0.60 | SMC4 log2FC (Gene 10051): 0.76 | ACTR2 log2FC (Gene 10097): -0.39 | RAD50 log2FC (Gene 10111): 0.41 | KIF20A log2FC (Gene 10112): 0.59 | OPTN log2FC (Gene 10133): 0.73 | AKAP9 log2FC (Gene 10142): 1.37 | PSME3 log2FC (Gene 10197): -1.22 | MPHOSPH9 log2FC (Gene 10198): 0.40 | MPHOSPH6 log2FC (Gene 10200): -0.88 | MAEA log2FC (Gene 10296): -0.11 | PAK4 log2FC (Gene 10298): -0.42 | NPM2 log2FC (Gene 10361): -0.11 | HMG20B log2FC (Gene 10362): 0.52 | CITED2 log2FC (Gene 10370): 2.31
